The test system of this assay is IL-1β release from THP-1 cells. As to the kind of experiment: IL-1β Release Assay (Alternate Method), THP-1 cells. The format is cell-based, human. The settings on record: at 0.3 μM; THP-1 cells. The method in brief:
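IL-1β release, measured by ELISA, follows 45 min BzATP (250 uM final) stimulation of THP-1 cells given 30 min compound pretreatment. Cells were first primed 16 h with LPS and IFN-γ (100 ng/mL each), then 2 h with fresh LPS; inhibition expressed in percent after background correction.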
Take `COc1cc(OC)cc(C(=O)N2CCc3c(ncnc3NC(=O)CC34CC5CC(CC(C5)C3)C4)C2)c1` [Compound 246]: the IL-1β % inhibition result was “++ (compound exhibited 25-50% inhibition at 0.3 μM)”.

For the compound `O=C(CC12CC3CC(CC(C3)C1)C2)Nc1ncnc2c1CCN(C(=O)c1c(F)cccc1F)C2` [Compound 247], the IL-1β % inhibition entry is reported as “++++ (compound exhibited 75% or greater inhibition at 0.3 μM)”.

As for `O=C(CC12CC3CC(CC(C3)C1)C2)Nc1ncnc2c1CCN(C(=O)CCc1ccccc1)C2` [Compound 248], the IL-1β % inhibition entry was “+ (compound exhibited 0-25% inhibition at 0.3 μM)”.

On to `O=C(CC12CC3CC(CC(C3)C1)C2)Nc1ncnc2c1CCN(C(=O)COc1ccccc1)C2` [Compound 249], for which the IL-1β % inhibition entry is “+ (compound exhibited 0-25% inhibition at 0.3 μM)”.

Take `COc1cccc(C(=O)N2CCc3c(ncnc3NC(=O)CC34CC5CC(CC(C5)C3)C4)C2)c1` [Compound 250]: the IL-1β % inhibition entry is on record as “+++ (compound exhibited 50-75% inhibition at 0.3 μM)”.

With `O=C(CC12CC3CC(CC(C3)C1)C2)Nc1ncnc2c1CCN(C(=O)c1ccc(F)cc1)C2` [Compound 251], the IL-1β % inhibition result was “+ (compound exhibited 0-25% inhibition at 0.3 μM)”.

Consider `CC(C)(C)C(=O)N1CCc2c(ncnc2NC(=O)CC23CC4CC(CC(C4)C2)C3)C1` [Compound 252], for which the IL-1β % inhibition result is “++ (compound exhibited 25-50% inhibition at 0.3 μM)”.

For `O=C(CC12CC3CC(CC(C3)C1)C2)Nc1ncnc2c1CCN(C(=O)c1cccc(Cl)c1)C2` [Compound 253], the IL-1β % inhibition entry is “+++ (compound exhibited 50-75% inhibition at 0.3 μM)”.

With `COc1ccc(CC(=O)N2CCc3c(ncnc3NC(=O)CC34CC5CC(CC(C5)C3)C4)C2)cc1OC` [Compound 254], the IL-1β % inhibition result is reported as “+ (compound exhibited 0-25% inhibition at 0.3 μM)”.

On to `CC(C)CC(=O)N1CCc2c(ncnc2NC(=O)CC23CC4CC(CC(C4)C2)C3)C1` [Compound 255], for which the IL-1β % inhibition result was “++ (compound exhibited 25-50% inhibition at 0.3 μM)”.

Take `O=C(CC12CC3CC(CC(C3)C1)C2)Nc1ncnc2c1CCN(C(=O)COCc1ccccc1)C2` [Compound 256]: the IL-1β % inhibition result is “+++ (compound exhibited 50-75% inhibition at 0.3 μM)”.

On to `N#Cc1ccc(C(=O)N2CCc3c(ncnc3NC(=O)CC34CC5CC(CC(C5)C3)C4)C2)cc1` [Compound 257], for which the IL-1β % inhibition entry is “+ (compound exhibited 0-25% inhibition at 0.3 μM)”.

Regarding `O=C(CC12CC3CC(CC(C3)C1)C2)Nc1ncnc2c1CCN(C(=O)c1ccc(Cl)cc1Cl)C2` [Compound 258], the IL-1β % inhibition entry is “++++ (compound exhibited 75% or greater inhibition at 0.3 μM)”.

For `O=C(CC12CC3CC(CC(C3)C1)C2)Nc1ncnc2c1CCN(C(=O)C1CC1)C2` [Compound 260], the IL-1β % inhibition result is reported as “+++ (compound exhibited 50-75% inhibition at 0.3 μM)”.

For `COc1cccc(CC(=O)N2CCc3c(ncnc3NC(=O)CC34CC5CC(CC(C5)C3)C4)C2)c1` [Compound 261], the IL-1β % inhibition entry was “+ (compound exhibited 0-25% inhibition at 0.3 μM)”.

As for `CC(C)(C)CC(=O)N1CCc2c(ncnc2NC(=O)CC23CC4CC(CC(C4)C2)C3)C1` [Compound 262], the IL-1β % inhibition result was “+ (compound exhibited 0-25% inhibition at 0.3 μM)”.

For `O=C(CC12CC3CC(CC(C3)C1)C2)Nc1ncnc2c1CCN(C(=O)CC1CCCC1)C2` [Compound 263], the IL-1β % inhibition entry is reported as “++++ (compound exhibited 75% or greater inhibition at 0.3 μM)”.

As for `O=C(CC12CC3CC(CC(C3)C1)C2)Nc1ncnc2c1CCN(C(=O)COc1ccc(Cl)cc1)C2` [Compound 264], the IL-1β % inhibition entry is listed as “+++ (compound exhibited 50-75% inhibition at 0.3 μM)”.

`O=C(CC12CC3CC(CC(C3)C1)C2)Nc1ncnc2c1CCN(C(=O)Cc1ccc(Cl)cc1)C2` [Compound 265]: the IL-1β % inhibition result is “++ (compound exhibited 25-50% inhibition at 0.3 μM)”.

As for `O=C(CC12CC3CC(CC(C3)C1)C2)Nc1ncnc2c1CCN(C(=O)c1ccc(C(F)(F)F)cc1F)C2` [Compound 266], the IL-1β % inhibition entry is given as “+ (compound exhibited 0-25% inhibition at 0.3 μM)”.

For `O=C(CC12CC3CC(CC(C3)C1)C2)Nc1ncnc2c1CCN(C(=O)c1cc(F)cc(C(F)(F)F)c1)C2` [Compound 267], the IL-1β % inhibition entry is “++ (compound exhibited 25-50% inhibition at 0.3 μM)”.

In the case of `O=C(CC12CC3CC(CC(C3)C1)C2)Nc1ncnc2c1CCN(C(=O)c1cccc(OC(F)(F)F)c1)C2` [Compound 269], the IL-1β % inhibition entry is listed as “++ (compound exhibited 25-50% inhibition at 0.3 μM)”.

For `O=C(CC12CC3CC(CC(C3)C1)C2)Nc1ncnc2c1CCN(C(=O)c1ccccc1C(F)(F)F)C2` [Compound 270], the IL-1β % inhibition entry is reported as “+ (compound exhibited 0-25% inhibition at 0.3 μM)”.

As to `O=C(CC12CC3CC(CC(C3)C1)C2)Nc1ncnc2c1CCN(C(=O)c1cc(C(F)(F)F)ccc1Cl)C2` [Compound 271], the IL-1β % inhibition result is recorded as “++++ (compound exhibited 75% or greater inhibition at 0.3 μM)”.

With `O=C(CC12CC3CC(CC(C3)C1)C2)Nc1ncnc2c1CCN(C(=O)c1c(F)cccc1Cl)C2` [Compound 272], the IL-1β % inhibition result was “++++ (compound exhibited 75% or greater inhibition at 0.3 μM)”.

For `Cc1nn(-c2ccccc2)nc1C(=O)N1CCc2c(ncnc2NC(=O)CC23CC4CC(CC(C4)C2)C3)C1` [Compound 273], the IL-1β % inhibition result is given as “++++ (compound exhibited 75% or greater inhibition at 0.3 μM)”.

For `O=C(CC12CC3CC(CC(C3)C1)C2)Nc1ncnc2c1CCN(C(=O)c1cccnc1Oc1ccccc1)C2` [Compound 274], the IL-1β % inhibition result is reported as “+ (compound exhibited 0-25% inhibition at 0.3 μM)”.

Turning to `COc1ccc(C(=O)N2CCc3c(ncnc3NC(=O)CC34CC5CC(CC(C5)C3)C4)C2)c(OC)c1` [Compound 275], the IL-1β % inhibition entry is on record as “+++ (compound exhibited 50-75% inhibition at 0.3 μM)”.

Turning to `O=C(CC12CC3CC(CC(C3)C1)C2)Nc1ncnc2c1CCN(C(=O)c1ccc(F)cc1F)C2` [Compound 277], the IL-1β % inhibition result is given as “+++ (compound exhibited 50-75% inhibition at 0.3 μM)”.

Turning to `Cc1ccccc1C(=O)N1CCc2c(ncnc2NC(=O)CC23CC4CC(CC(C4)C2)C3)C1` [Compound 278], the IL-1β % inhibition entry is “+++ (compound exhibited 50-75% inhibition at 0.3 μM)”.

With `O=C(CC12CC3CC(CC(C3)C1)C2)Nc1ncnc2c1CCN(C(=O)c1cc(F)ccc1F)C2` [Compound 279], the IL-1β % inhibition result is on record as “++++ (compound exhibited 75% or greater inhibition at 0.3 μM)”.

Turning to `O=C(CC12CC3CC(CC(C3)C1)C2)Nc1ncnc2c1CCN(C(=O)c1ccccc1F)C2` [Compound 280], the IL-1β % inhibition result is “+++ (compound exhibited 50-75% inhibition at 0.3 μM)”.

On to `O=C(CC12CC3CC(CC(C3)C1)C2)Nc1ncnc2c1CCN(C(=O)c1ccc(Cl)nc1)C2` [Compound 281], for which the IL-1β % inhibition result was “+ (compound exhibited 0-25% inhibition at 0.3 μM)”.

Take `O=C(CC12CC3CC(CC(C3)C1)C2)Nc1ncnc2c1CCN(C(=O)c1cccc(Cl)c1Cl)C2` [Compound 282]: the IL-1β % inhibition entry is on record as “++++ (compound exhibited 75% or greater inhibition at 0.3 μM)”.

On to `Cc1cc(C(=O)N2CCc3c(ncnc3NC(=O)CC34CC5CC(CC(C5)C3)C4)C2)no1` [Compound 283], for which the IL-1β % inhibition entry is “+++ (compound exhibited 50-75% inhibition at 0.3 μM)”.

With `Cc1cc(C(=O)N2CCc3c(ncnc3NC(=O)CC34CC5CC(CC(C5)C3)C4)C2)nn1C` [Compound 284], the IL-1β % inhibition result is “++ (compound exhibited 25-50% inhibition at 0.3 μM)”.

(Values after patent US7297700B2, “Bicycloheteroaryl compounds as P2X7 modulators and uses thereof” (Renovis, Inc., priority 2005, dated 2007).)
